Experimental findings from US7718669B2, “Triazolopyridine derivatives as inhibitors of lipases and phospholipases” (Sanofi-Aventis, priority 2005, dated 2010) are described below.

One test concerns the target T1, hormone sensitive lipase, HSL (Rattus norvegicus, UniProt P15304).
T1 construct: Isolated rat fat cells are obtained from epididymal adipose tissue; from tissue; host or cells: fat cells from epididymal adipose tissue of male Wistar rats
T1 sequence (P15304 301-1068 limits assumed): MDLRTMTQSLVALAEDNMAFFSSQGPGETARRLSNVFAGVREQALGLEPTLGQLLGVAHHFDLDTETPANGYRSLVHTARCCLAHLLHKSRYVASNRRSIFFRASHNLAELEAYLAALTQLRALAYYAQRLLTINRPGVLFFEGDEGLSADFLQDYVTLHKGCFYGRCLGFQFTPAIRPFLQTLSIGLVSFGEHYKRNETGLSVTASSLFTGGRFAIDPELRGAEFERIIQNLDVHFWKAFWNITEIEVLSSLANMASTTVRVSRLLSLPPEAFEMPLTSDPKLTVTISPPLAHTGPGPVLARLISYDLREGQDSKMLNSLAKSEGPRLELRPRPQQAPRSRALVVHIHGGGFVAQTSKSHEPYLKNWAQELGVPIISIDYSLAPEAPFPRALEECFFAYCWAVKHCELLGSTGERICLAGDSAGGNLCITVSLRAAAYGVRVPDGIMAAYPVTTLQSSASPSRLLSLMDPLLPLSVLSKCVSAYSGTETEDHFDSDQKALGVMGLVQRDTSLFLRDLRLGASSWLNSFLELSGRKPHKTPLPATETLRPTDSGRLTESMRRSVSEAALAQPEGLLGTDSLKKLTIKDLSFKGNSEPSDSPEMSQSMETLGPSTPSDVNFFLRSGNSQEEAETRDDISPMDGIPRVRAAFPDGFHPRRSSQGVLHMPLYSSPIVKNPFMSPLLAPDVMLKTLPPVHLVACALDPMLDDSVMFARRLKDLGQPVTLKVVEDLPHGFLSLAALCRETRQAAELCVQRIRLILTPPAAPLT
Briefly: HSL inhibition assay. It is filed as biochemical. Particulars: partially purified HSL from rat fat cells; [3H]trioleoylglycerol substrate; 37° C. for 30 min. As to the method: Preparation of the Partially Purified HSL:
Isolated rat fat cells are obtained from epididymal adipose tissue from untreated male rats (Wistar, 220-250 g) by collagenase treatment in accordance with published methods (e.g. S, Nilsson et al., Anal. Biochem. 158, 1986, 399-407; G. Fredrikson et al., J. Biol. Chem. 256, 1981, 6311-6320; H. Tornquist et al., J. Biol. Chem. 251, 1976, 813-819). The fat cells from 10 rats are washed three times by flotation with 50 ml of homogenization buffer ([…] Tris/HCl, pH 7.4, 0.25 M sucrose, 1 mM ETDA, 1 mM DTT, 10 μg/ml leupeptin, 10 μg/ml antipain, 20 μg/ml pepstatin) each time and finally taken up in 10 ml of homogenization buffer. The fat cells are homogenized in a Teflon-in-glass homogenizer (Braun-Melsungen) by 10 strokes at 1500 rpm and 15° C. The homogenate is centrifuged (Sorvall SM24 tubes, 5000 rpm, 10 min, 4° C.). The subnatant between the layer of fat at the top and the pellet is removed and the centrifugation is repeated. The subnatant resulting therefrom is centrifuged again (Sorvall SM24 tubes, 20 000 rpm, 45 min, 4° C.). […] After incubation at 4° C. for 60 min (shaking at intervals of 15 min), the mixture is centrifuged (Sorvall SM24 tubes, 3000 rpm, 10 min, 4° C.). The supernatant is adjusted to pH 5.2 by adding glacial acetic acid and is incubated at 4° C. for 30 min. The precipitates are collected by centrifugation (Sorvall SS34, 12 000 rpm, 10 min, 4° C.) and suspended in 2.5 ml of 20 mM Tris/HCl, pH 7.0, 1 mM EDTA, 65 mM NaCl, 13% sucrose, 1 mM DTT, 10 μg/ml leupeptin/pepstatin/antipain. The suspension is dialyzed against 25 mM Tris/HCl, pH 7.4, 50% glycerol, 1 mM DTT, 10 μg/ml leupeptin, pepstatin, antipain at 4° C. overnight and then loaded onto a hydroxiapatite column (0.1 g per 1 ml of suspension, equilibrated with 10 mM potassium phosphate, pH 7.0, 30% glycerol, 1 mM DTT). The column is washed with four volumes of equilibration buffer at a flow rate of 20 to 30 ml/h. The HSL is eluted with one volume of equilibration buffer containing 0.5 M potassium phosphate and then dialyzed (see above) and concentrated 5- to 10-fold by ultrafiltration (Amicon Diaflo PM 10 Filter) at 4° C. The partially purified HSL can be stored at −70° C. for 4 to 6 weeks.
To prepare the substrate, 25-50 μCi of [3H]trioleoylglycerol (in toluene), 6.8 μmol of unlabeled trioleoylglycerol and 0.6 mg of phospholipids (phosphatidylcholine/phosphatidylinositol 3:1 w/v) are mixed, dried with N2 and then taken up in 2 ml of 0.1 M KPi (pH 7.0) by ultrasound treatment (Branson 250, microtip, setting 1-2, 2×1 min with an interval of 1 min). After addition of 1 ml of KPi and renewed ultrasound treatment (4×30 sec on ice with intervals of 30 sec), 1 ml of 20% BSA (in KPi) is added (final concentration of trioleoylglycerol 1.7 mM). For the reaction, 100 μl of substrate solution are pipetted into 100 μl of HSL solution (HSL prepared as above, diluted in 20 mM KPi, pH 7.0, 1 mM EDTA, 1 mM DTT, 0.02% BSA, 20 μg/ml pepstatin, 10 μg/ml leupeptin) and incubated at 37° C. for 30 min. Addition of 3.25 ml of methanol/chloroform/heptane (10:9:7) and of 1.05 ml of 0.1 M K2CO3, 0.1 M boric acid (pH 10.5) is followed by thorough mixing and finally centrifugation (800×g, 20 min). After phase separation, one equivalent of the upper phase (1 ml) is removed and the radioactivity is determined by liquid scintillation measurement.
Substances are normally tested in four independent mixtures. The inhibition of the HSL enzymatic activity by a test substance is determined by comparing with an uninhibited control reaction. The IC50 is calculated from an inhibition plot with at least 10 concentrations of the test substance. The GRAPHIT, Elsevier-BIOSOFT software package is used to analyze the data.
In the case of `Cc1ccccc1N1CCN(C(=O)n2nnc3ncccc32)CC1` [Example 25], the IC50 – broadly, the concentration needed to halve the response being measured – was 0.215 µM. The same measure, in the same setting: as for `O=C(N1CCN(c2ccc(-c3ccccc3)cc2)CC1)n1nnc2ncccc21` [Example 26], the figure is 0.198 µM; as for `CC1CCN(C(=O)n2nnc3ccc(Cl)nc32)CC1` [Example 61, (5-chloro-[1,2,3]triazolo[4,5-b]pyridin-3-yl)-(4-methylpiperidin-1-yl)-methanone], 0.03 µM. Still for that read-out and setting: next, `CCCCCCCCN1CCN(C(=O)n2nnc3ncccc32)CC1` [Example 51]: 0.237 µM; `CC1CCN(C(=O)n2nnc3nc(Cl)ccc32)CC1` [Example 1, (5-Chloro-[1,2,3]triazolo[4,5-b]pyridin-1-yl)-(4-methylpiperidin-1-yl)-methanone]: 0.5 µM; `COC(=O)c1ccc(C2CCN(C(=O)n3nnc4ncccc43)CC2)cc1` [Example 23]: 0.45 µM. Still for that read-out and setting: next, `O=C(N1CCc2ccccc2C1)n1nnc2ccc(Cl)nc21` [Example 66, (5-chloro-[1,2,3]triazolo[4,5-b]pyridin-3-yl)-(3,4-dihydro-1H-isoquinolin-2-yl)-methanone]: 0.15 µM; `O=C(N1CCc2ccccc2C1)n1nnc2ncccc21` [Example 4]: 0.07 µM; `O=C(N1CCC(CCc2ccccc2)CC1)n1nnc2ncccc21` [Example 48]: 0.662 µM. `CCCC1CCN(C(=O)n2nnc3ncccc32)CC1` [Example 31]: it took 0.136 µM to reach half-maximal inhibition (IC50).

Turning to `O=C(N1CCc2ccccc2C1)n1nnc2cccnc21` [Example 64], the midpoint of inhibition, the IC50, lay at 0.03 µM.

On to `CC1CCCN(C(=O)n2nnc3cccnc32)C1` (stereo not shown) [Example 63], for which 0.965 µM corresponded to half-maximal inhibition (IC50). The same measure, in the same setting: as for `CC1CCN(C(=O)n2nnc3cccnc32)CC1` [Example 62], the figure is 0.16 µM. Turning to `Cc1cccc(C)c1N1CCN(C(=O)n2nnc3ncccc32)CC1` [Example 14], half-maximal inhibition (IC50) was put at 0.607 µM. Consider `O=C(N1CCC(c2ccccc2F)CC1)n1nnc2ncccc21` [Example 43], for which the IC50 was determined as 0.763 µM. Turning to `O=C(N1CCC(c2ccc3ccccc3c2)CC1)n1nnc2ncccc21` [Example 33], the IC50 stood at 0.112 µM. The molecule `O=C(N1CCN(c2ccc(OCc3ccccc3)cc2)CC1)n1nnc2ncccc21` [Example 41] yielded an IC50 of 0.062 µM. Same read-out and setting: next, `CCCCCN(CCCCC)C(=O)n1nnc2ncccc21` [Example 24]: 0.175 µM. With `CCOc1ccc(N2CCN(C(=O)n3nnc4ncccc43)CC2)cc1` [Example 37], the IC50 worked out at 0.576 µM. Same read-out and setting: next, `CC1CCN(C(=O)n2nnc3ncc(Cl)cc32)CC1` [Example 5, (6-Chloro-[1,2,3]triazolo[4,5-b]pyridin-1-yl)-(4-methyl-piperidin-1-yl)-methanone]: 0.3 µM; `Nc1ccc(C2CCN(C(=O)n3nnc4ncccc43)CC2)cc1` [Example 42]: 0.159 µM. For `O=C(N1CCC(c2cccc(C(F)(F)F)c2)CC1)n1nnc2ncccc21` [Example 53], it took 0.826 µM to reach half-maximal inhibition (IC50). Take `O=C(C1CCC2(CC1)CCN(c1ccccc1)C2=O)n1nnc2ncccc21` (stereo not shown) [Example 35]: inhibition was half-maximal at 0.78 µM (IC50). Regarding `CC1(C)CCCN(C(=O)n2nnc3ncccc32)C1` [Example 50], half-maximal inhibition (IC50) required 0.367 µM. `CC1CC(C)CN(C(=O)n2nnc3ncccc32)C1` (stereo not shown) [Example 30] registered an IC50 of 0.585 µM.

A further test has as its target T2, endothelial lipase (EL) (Homo sapiens, UniProt Q9Y5X9).
T2 construct: made in house; host or cells: recombinant CHO or HEK293 cell lines; concentrated conditioned medium
T2 sequence (Q9Y5X9 21-500): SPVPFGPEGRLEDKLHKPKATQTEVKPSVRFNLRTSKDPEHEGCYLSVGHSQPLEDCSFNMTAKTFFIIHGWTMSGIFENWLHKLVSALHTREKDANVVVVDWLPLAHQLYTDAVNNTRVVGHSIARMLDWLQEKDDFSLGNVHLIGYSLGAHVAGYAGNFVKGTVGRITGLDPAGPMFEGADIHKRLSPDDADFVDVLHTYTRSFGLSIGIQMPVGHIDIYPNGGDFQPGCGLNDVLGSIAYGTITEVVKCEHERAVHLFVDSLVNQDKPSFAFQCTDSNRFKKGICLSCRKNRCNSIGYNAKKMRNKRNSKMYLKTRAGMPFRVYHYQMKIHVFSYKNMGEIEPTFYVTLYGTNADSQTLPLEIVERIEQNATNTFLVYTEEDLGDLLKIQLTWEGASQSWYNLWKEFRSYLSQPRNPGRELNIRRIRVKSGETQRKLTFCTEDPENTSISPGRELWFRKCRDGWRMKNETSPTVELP
Briefly: EL inhibition assay. The test is classed as biochemical. As to conditions: EL from conditioned medium of recombinant cell lines (CHO, HEK293); Bodipy phospholipid substrate; 37° C. for 60 minutes. From the text:
EL is released as secretory protein in high concentration into cell culture medium (conditioned medium) by recombinant cell lines (CHO, HEK293). This is employed as enzyme solution after concentration.
The phospholipase-specific substrate 1,2-bis(4,4-difluoro-5,7-dimethyl-4-bora-3a,4a-diaza-s-indacene-3-undecanoyl)-sn-glycero-3-phosphocholine, (manufacturer Molecular Probes) is used to characterize the enzymatic activity of endothelial lipase and the effect of inhibitors. Hydrolysis of the A1 ester linkage of this phospholipid by the enzyme liberates the fluorescent dye Bodipy which can be detected after separation by thin-layer chromatography on an HPTLC plate (silica gel 60, Merck) or directly in the reaction vessel by measuring the fluorescence. The substrate solution is prepared by taking up 100 μg of 1,2-bis(4,4-difluoro-5,7-dimethyl-4-bora-3a,4a-diaza-s-indacene-3-undecanoyl)-sn-glycero-3-phospho-choline (manufacturer Molecular Probes), 2.4 mg of tripalmitin (Sigma) and 7.9 mg of DOP-choline (1,2-dioleoyl-sn-glycero-3-phosphocholine) in 393 μl of chloroform and then transferring 157 μl into a fresh reaction vessel. After evaporation of the solvent, the lipid mixture is dissolved in 4 ml of 200 mM TRIS-HCl, 150 mM sodium chloride, pH=7.4, by sonication twice. The subsequent enzymic reaction takes place at 37° C. for 60 minutes. For this purpose, 45 μl of the substrate solution are incubated with 1 μl of inhibitor of appropriate concentration (dissolved in DMSO, pure DMSO solution is used as control) and 5 μl of enzyme solution (conditioned medium). Then 3 μl of the assay mixture are loaded onto an HPTLC plate (silica gel 60, Merck), and the liberated fluorescent dye is separated for detection with an eluent (diethyl ether:petroleum benzene:acetic acid [78:22:1]). After evaporation of the eluent, the plate is read in a fluorescence scanner. An increased release of the fluorescent dye in the uninhibited reaction is to be observed as a measure of the enzymic activity.
The enzymatic activity is reduced as a function of the inhibitor concentration used, and the inhibitor concentration at which a half-maximum enzymic activity is observed is called IC50.
In the case of `Cc1ccccc1CNC(=O)n1nnc2nc(Cl)ccc21` [Example 54], the IC50 worked out at 0.74 µM. Same read-out and setting: next, `Cc1ccccc1CNC(=O)n1nnc2ncc(Cl)cc21` [Example 55]: 0.58 µM.

Regarding `CCCCCCNC(=O)n1nnc2nc(Cl)ccc21` [Example 56], the IC50 worked out at 0.04 µM.
